This note sets out measurements from the SangsterLogP compilation.

The series in a line: method code SF-AS, from DOI: 10.1021/bi00362a019, PMID: 3017413.
As a reminder, the logP is the decadic logarithm of the partition coefficient of the neutral form, usually between octanol and water. A lower logP goes with a more hydrophilic compound. In turn, `N=C(N)NN=Cc1ccc(Cl)cc1` returned a logP of 0.96.

Compound `CC(C)(C)Oc1ccc(/C=N/N=C(N)N)cc1` gave a logP of 1.38. Next, `CCOc1ccc(/C=N/N=C(N)N)cc1`: 0.24. `CCN(CC)c1ccc(C=NN=C(N)N)cc1` registered a logP of 0.56. In the case of `NC(N)=N/N=C/c1ccc(Oc2ccccc2)cc1`, the logP worked out at 1.87.

`CN(C)c1ccc(/C=N/N=C(N)N)cc1`: the logP came to 0.28. Turning to `NC(N)=N/N=C/c1ccccc1[N+](=O)[O-]`, the logP is 0.53. Next, `NC(N)=N/N=C/c1ccc([N+](=O)[O-])cc1`: 0.87; `NC(N)=N/N=C/c1ccc(Br)cc1`: 1.3.

In turn, `COc1ccc(/C=N/N=C(N)N)cc1` registered a logP of 0.29.

Turning to `NC(N)=N/N=C/c1cccc([N+](=O)[O-])c1`, the lipophilicity (logP) was found to be 0.01. As to `N=C(N)NN=Cc1ccc(-c2ccccc2)cc1`, the logP is 1.49. Compound `NC(N)=N/N=C/c1ccc(Cl)c([N+](=O)[O-])c1` yielded a logP of 0.53.
